Test results published in ChEMBL document CHEMBL5096151, “Phytocannabinoid Pharmacology: Medicinal Properties of Cannabis sativa Constituents Aside from the "Big Two"” (J Nat Prod, 2021).
In brackets after ≈: the same amount, converted by molar mass.

Key:
[1] = molecular target: Cannabinoid receptor 2 (Homo sapiens, UniProt P34972); assay: Binding affinity to human CB2 receptor assessed as inhibition constant
[2] = molecular target: T1, Cannabinoid receptor 1 (Homo sapiens, UniProt P21554); assay: Binding affinity to CB1 (unknown origin) receptor assessed as inhibition constant
[3] = molecular target: T2, Transient receptor potential cation channel subfamily V member 4 (Homo sapiens, UniProt Q9HBA0); assay: Agonist activity at ionomycin-stimulated TRPV4 (unknown origin) activation assessed as efficacy relative to control
[4] = molecular target: T3, Transient receptor potential cation channel subfamily V member 2 (Homo sapiens) (UniProt Q9Y5S1); assay: Agonist activity at ionomycin-stimulated TRPV2 (unknown origin) activation assessed as efficacy relative to control; conditions: filed as agonist
T3 sequence (whole entry): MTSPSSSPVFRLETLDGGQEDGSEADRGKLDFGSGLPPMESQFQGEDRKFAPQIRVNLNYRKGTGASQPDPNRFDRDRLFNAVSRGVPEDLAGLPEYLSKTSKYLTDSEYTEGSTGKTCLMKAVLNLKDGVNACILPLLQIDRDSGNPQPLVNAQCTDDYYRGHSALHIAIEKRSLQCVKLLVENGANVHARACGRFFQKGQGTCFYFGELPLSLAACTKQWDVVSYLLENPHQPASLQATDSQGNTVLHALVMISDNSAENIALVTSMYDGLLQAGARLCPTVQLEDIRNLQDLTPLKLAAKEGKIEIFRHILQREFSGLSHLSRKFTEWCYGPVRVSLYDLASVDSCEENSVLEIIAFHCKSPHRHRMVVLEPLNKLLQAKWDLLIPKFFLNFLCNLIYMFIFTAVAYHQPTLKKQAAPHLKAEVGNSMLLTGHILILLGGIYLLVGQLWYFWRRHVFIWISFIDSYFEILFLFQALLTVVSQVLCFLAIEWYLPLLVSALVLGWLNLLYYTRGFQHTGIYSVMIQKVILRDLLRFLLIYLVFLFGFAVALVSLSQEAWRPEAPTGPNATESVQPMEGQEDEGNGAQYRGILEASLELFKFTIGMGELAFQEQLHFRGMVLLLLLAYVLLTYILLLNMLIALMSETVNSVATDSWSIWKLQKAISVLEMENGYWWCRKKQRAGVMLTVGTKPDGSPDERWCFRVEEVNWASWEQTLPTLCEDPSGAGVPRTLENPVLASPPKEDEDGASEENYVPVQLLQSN

[5] = test system: Staphylococcus aureus; assay: Antibiofilm activity against methicillin-resistant Staphylococcus aureus USA300 incubated for 24 hrs by CLSI based assay; assay type: functional
[6] = molecular target: T2, Transient receptor potential cation channel subfamily V member 4; assay: Agonist activity at ionomycin-stimulated TRPV4 (unknown origin) activation
[7] = molecular target: T4, Transient receptor potential cation channel subfamily V member 3 (Homo sapiens) (UniProt Q8NET8); assay: Agonist activity at ionomycin-stimulated TRPV3 (unknown origin) activation assessed as efficacy relative to control
T4 sequence (whole entry): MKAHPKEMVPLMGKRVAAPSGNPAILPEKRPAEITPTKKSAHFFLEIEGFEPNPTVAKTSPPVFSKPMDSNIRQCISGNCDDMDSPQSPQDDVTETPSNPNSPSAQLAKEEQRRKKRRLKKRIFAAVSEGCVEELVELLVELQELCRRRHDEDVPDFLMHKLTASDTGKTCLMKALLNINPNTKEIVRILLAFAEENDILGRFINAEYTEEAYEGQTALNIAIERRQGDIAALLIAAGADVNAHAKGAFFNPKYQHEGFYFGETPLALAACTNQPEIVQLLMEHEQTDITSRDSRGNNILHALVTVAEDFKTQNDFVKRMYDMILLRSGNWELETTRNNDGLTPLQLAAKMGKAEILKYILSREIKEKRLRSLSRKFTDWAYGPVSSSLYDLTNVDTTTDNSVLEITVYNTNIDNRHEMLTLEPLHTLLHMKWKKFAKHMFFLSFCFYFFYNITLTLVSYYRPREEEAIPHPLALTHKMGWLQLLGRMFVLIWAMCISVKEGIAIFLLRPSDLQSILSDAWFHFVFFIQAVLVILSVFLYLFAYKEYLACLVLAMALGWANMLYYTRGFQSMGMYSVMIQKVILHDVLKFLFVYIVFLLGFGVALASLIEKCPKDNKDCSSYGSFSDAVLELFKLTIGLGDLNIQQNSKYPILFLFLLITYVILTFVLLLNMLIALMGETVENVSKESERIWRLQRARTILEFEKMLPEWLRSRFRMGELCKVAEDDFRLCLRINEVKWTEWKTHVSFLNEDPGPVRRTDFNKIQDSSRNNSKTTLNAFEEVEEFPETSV

[8] = molecular target: T5, Transient receptor potential cation channel subfamily V member 2 (Homo sapiens, UniProt Q9Y5S1); assay: Agonist activity at ionomycin-stimulated TRPV2 (unknown origin) activation
T5 sequence (Q9Y5S1 whole entry): T3 sequence (whole entry)

[9] = test system: Staphylococcus aureus; assay: Antibiofilm activity against methicillin-resistant Staphylococcus aureus USA300 incubated for 24 hrs by crystal violet staining based assay; assay type: functional
[10] = molecular target: T5, Transient receptor potential cation channel subfamily V member 2; assay: Agonist activity at ionomycin-stimulated TRPV2 (unknown origin) channel desensitization in presence of lysophosphatidylcholine
[11] = Agonist activity at CB2 receptor in albino MF1 mouse vas deferens assessed as inhibition of electrically evoked vas deferens contraction by incubated for 13 mins followed by electrical stimulation for 2 mins
[12] = molecular target: Transient receptor potential cation channel subfamily V member 1 (Homo sapiens, UniProt Q8NER1); assay: Agonist activity at ionomycin-stimulated TRPV1 (unknown origin) activation assessed as efficacy relative to control
[13] = molecular target: Cannabinoid receptor 1 (Rattus norvegicus, UniProt P20272); assay: Displacement of [35S]GTPgammaS from CB1 receptor in rat brain; assay type: tissue-based
[14] = molecular target: T6, Transient receptor potential cation channel subfamily A member 1 (Homo sapiens, UniProt O75762); assay: Agonist activity at TRPA1 (unknown origin) channel desensitization in presence of isothiocyanate
[15] = molecular target: T1, Cannabinoid receptor 1; assay: Displacement of [3H]-WIN55212-2 from human CB1 receptor transfected in CHO cell membrane incubated for 90 mins by Liquid scintillation counter analysis; assay type: cell membranes
[16] = molecular target: T7, Transient receptor potential cation channel subfamily V member 3 (Homo sapiens, UniProt Q8NET8); assay: Agonist activity at ionomycin-stimulated TRPV3 (unknown origin) activation
T7 sequence (Q8NET8 whole entry): T4 sequence (whole entry)

[17] = molecular target: Cannabinoid receptor 1 (Mus musculus) (UniProt P47746); assay: Agonist activity at CB1 receptor in albino MF1 mouse vas deferens assessed as inhibition of electrically evoked vas deferens contraction by incubated for 13 mins followed by electrical stimulation for 2 mins; assay type: functional; conditions: filed as antagonist, time 15.0 min
[18] = test system: Escherichia coli; assay: […] activity against Escherichia coli in presence of polymyxin; assay type: functional
[19] = test system: Staphylococcus aureus; assay: Antibacterial activity against methicillin-resistant Staphylococcus aureus USA300 infected in mouse assessed as log10 reduction in bacterial load in spleen at 100 mg/kg ,ip measured for 30 mins; assay type: functional; conditions: 0.5 h
[20] = molecular target: T6, Transient receptor potential cation channel subfamily A member 1; assay: Agonist activity at TRPA1 (unknown origin) activation assessed as efficacy relative to control; conditions: filed as agonist
[21] = molecular target: T2, Transient receptor potential cation channel subfamily V member 4; assay: Agonist activity at ionomycin-stimulated TRPV4 (unknown origin) channel desensitization in presence of 4alphaPDD
[22] = molecular target: T7, Transient receptor potential cation channel subfamily V member 3; assay: Agonist activity at ionomycin-stimulated TRPV3 (unknown origin) channel desensitization in presence of carvacrol
[23] = molecular target: T1, Cannabinoid receptor 1; assay: Displacement of [35S]GTPgammaS from human CB1 receptor expressed in CHO cells; assay type: cell-based
[24] = molecular target: T6, Transient receptor potential cation channel subfamily A member 1; assay: Agonist activity at TRPA1 (unknown origin) activation
[25] = molecular target: Alpha-2A adrenergic receptor (Homo sapiens) (UniProt P08913); assay: Displacement of [35S]GTPgammaS from human alpha2-adreno receptor receptor expressed in CHO cells; assay type: cell-based
Sequence of Alpha-2A adrenergic receptor (Homo sapiens) (P08913 whole entry): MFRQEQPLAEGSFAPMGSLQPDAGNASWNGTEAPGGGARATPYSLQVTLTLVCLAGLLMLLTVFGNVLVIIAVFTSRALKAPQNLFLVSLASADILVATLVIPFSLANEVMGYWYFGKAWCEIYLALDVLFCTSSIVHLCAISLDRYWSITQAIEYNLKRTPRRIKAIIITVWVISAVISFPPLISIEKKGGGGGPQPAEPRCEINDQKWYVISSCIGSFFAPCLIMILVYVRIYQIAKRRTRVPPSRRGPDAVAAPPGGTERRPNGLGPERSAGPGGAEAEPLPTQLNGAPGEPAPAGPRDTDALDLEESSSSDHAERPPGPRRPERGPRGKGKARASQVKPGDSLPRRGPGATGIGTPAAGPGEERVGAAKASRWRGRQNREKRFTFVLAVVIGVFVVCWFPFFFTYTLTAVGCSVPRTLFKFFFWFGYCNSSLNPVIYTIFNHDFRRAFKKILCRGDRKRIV

T2 sequence (Q9HBA0 whole entry): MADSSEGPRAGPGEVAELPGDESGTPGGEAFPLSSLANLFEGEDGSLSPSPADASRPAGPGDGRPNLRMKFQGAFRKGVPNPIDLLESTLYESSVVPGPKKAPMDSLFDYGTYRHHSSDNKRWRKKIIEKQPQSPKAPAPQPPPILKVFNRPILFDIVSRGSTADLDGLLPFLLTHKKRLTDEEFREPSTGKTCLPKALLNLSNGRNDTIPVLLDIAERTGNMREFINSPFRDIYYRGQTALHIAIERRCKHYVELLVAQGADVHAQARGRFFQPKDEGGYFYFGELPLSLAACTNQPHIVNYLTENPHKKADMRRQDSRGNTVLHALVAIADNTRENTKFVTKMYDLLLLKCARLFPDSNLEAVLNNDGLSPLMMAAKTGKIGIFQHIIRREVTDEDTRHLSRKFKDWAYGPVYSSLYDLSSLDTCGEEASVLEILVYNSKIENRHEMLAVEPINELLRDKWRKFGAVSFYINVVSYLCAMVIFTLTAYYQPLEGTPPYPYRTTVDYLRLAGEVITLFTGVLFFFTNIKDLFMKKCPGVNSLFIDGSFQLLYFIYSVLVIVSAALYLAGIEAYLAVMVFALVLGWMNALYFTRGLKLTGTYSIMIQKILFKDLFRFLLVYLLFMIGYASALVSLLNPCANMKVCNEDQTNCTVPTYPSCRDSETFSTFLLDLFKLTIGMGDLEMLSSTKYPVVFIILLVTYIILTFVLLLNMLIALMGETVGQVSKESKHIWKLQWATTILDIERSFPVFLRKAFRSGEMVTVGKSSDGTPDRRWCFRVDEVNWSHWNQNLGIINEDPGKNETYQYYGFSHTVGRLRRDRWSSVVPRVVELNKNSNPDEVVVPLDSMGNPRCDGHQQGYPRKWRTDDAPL
T6 sequence (O75762 whole entry): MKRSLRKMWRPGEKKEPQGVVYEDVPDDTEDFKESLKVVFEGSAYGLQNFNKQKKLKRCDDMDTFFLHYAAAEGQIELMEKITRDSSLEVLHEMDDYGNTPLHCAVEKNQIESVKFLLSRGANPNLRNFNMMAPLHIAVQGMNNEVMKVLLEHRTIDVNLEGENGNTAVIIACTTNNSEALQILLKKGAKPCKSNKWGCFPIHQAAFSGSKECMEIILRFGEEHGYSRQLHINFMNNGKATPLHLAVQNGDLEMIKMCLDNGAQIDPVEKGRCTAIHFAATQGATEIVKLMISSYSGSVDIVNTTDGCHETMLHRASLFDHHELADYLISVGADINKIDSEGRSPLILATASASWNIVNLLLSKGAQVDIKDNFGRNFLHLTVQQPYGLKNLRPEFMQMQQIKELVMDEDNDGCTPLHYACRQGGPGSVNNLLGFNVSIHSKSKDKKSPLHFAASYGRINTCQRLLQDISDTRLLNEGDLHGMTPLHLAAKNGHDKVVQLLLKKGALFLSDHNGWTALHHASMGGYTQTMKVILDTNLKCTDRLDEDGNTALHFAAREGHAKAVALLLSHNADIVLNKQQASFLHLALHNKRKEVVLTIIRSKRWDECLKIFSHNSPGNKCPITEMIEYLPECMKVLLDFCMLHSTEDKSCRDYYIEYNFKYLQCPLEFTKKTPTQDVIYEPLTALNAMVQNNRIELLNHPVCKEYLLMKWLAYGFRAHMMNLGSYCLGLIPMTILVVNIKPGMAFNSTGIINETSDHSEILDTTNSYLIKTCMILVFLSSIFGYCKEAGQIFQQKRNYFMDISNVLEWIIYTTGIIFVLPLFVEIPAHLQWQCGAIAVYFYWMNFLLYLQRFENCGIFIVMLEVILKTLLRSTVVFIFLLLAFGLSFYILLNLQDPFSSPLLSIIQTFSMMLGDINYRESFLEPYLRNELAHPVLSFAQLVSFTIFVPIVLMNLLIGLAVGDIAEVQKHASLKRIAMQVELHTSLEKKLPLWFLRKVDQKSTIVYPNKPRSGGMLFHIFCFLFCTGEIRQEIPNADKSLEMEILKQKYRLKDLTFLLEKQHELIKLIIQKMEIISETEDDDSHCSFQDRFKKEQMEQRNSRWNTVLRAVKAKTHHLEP
T1 sequence (P21554 whole entry): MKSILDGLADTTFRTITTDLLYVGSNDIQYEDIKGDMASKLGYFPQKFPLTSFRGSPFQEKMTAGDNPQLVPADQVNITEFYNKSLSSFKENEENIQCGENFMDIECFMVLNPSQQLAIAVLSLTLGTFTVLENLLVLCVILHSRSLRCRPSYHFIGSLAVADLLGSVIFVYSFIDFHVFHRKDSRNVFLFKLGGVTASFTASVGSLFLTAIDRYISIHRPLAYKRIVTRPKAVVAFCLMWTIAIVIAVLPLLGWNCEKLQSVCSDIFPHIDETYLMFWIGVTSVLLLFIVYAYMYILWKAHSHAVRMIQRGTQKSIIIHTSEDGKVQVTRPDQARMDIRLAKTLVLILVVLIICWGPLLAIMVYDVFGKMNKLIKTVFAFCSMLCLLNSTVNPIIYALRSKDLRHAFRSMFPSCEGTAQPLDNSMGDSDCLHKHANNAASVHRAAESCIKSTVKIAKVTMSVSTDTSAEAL
Sequence of Cannabinoid receptor 2 (P34972 whole entry): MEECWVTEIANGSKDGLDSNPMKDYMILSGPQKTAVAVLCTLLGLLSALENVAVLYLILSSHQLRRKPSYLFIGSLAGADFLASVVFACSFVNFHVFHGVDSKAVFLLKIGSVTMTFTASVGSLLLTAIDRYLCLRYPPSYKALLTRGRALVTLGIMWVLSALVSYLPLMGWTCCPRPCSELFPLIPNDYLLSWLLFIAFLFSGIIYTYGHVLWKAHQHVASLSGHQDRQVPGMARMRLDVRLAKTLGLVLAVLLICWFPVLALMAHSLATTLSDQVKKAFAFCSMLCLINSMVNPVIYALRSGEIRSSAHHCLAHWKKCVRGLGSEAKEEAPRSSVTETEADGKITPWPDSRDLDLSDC
Sequence of Transient receptor potential cation channel subfamily V member 1 (Q8NER1 whole entry): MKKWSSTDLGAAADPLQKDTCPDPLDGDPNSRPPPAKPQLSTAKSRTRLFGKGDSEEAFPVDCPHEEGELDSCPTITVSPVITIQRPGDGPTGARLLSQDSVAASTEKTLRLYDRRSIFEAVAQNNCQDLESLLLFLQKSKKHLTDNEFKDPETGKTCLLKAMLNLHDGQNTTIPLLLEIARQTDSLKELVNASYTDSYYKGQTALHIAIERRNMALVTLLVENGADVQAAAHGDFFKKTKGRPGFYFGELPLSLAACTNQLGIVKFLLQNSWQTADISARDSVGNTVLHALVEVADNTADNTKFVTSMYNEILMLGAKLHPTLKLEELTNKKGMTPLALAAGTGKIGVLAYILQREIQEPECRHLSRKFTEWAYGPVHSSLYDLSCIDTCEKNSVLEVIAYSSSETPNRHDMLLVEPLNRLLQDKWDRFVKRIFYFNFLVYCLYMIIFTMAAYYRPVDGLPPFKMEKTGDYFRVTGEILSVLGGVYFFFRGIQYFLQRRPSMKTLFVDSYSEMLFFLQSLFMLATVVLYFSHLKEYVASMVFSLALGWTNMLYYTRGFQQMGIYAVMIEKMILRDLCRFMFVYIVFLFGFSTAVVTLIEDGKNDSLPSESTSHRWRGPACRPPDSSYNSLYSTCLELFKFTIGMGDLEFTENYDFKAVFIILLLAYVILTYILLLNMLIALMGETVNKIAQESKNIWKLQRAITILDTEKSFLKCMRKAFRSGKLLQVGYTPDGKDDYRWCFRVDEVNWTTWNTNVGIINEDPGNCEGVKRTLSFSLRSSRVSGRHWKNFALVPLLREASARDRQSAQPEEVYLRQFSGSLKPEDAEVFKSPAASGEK
Sequence of Cannabinoid receptor 1 (Mus musculus) (P47746 whole entry): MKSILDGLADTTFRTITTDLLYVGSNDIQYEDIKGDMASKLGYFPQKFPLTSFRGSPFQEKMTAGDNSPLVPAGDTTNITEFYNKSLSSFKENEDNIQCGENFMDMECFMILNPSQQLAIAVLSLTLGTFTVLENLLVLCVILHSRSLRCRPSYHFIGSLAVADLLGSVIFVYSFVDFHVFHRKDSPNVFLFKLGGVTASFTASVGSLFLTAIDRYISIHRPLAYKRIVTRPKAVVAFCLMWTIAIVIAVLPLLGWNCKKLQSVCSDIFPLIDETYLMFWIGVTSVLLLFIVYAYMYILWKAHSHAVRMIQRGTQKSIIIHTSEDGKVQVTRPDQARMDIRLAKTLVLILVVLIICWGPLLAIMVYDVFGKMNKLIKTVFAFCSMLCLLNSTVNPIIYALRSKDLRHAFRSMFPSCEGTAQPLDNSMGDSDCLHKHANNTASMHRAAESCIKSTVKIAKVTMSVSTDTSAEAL
Sequence of Cannabinoid receptor 1 (Rattus norvegicus, UniProt P20272) (P20272 whole entry): as the sequence (P47746 whole entry) above, with D95E counted along it

## CCCCCCCc1cc(O)c2c(c1)OC(C)(C)[C@@H]1CCC(C)=C[C@@H]21
[1]
  Ki: 0.0069 µM
[2]
  Ki: 0.13 µM

## CCCCCc1cc(O)c(C/C=C(\C)CCC=C(C)C)c(O)c1 [CANNABIGEROL]
[3]
  Efficacy: 24%
[4]
  Efficacy: 74%
[5]
  MIC90: 4 µg/mL (≈ 12.6 µM)
[6]
  EC50: 5.1 µM
[7]
  Efficacy: 18%
[8]
  EC50: 1.7 µM
[9]
  MIC: 0.5 µg/mL (≈ 1.58 µM)
  MIC90: 4 µg/mL (≈ 12.6 µM)
[10]
  IC50: 1.5 µM
[11]
  Ki: 1.1 µM
[12]
  Efficacy: 34%
[13]
  Ki: 0.44 µM
[14]
  IC50: 13 µM
[15]
  K: 1.04 µM
[16]
  EC50: 1 µM
[17]
  K: 0.38 µM
[18]
  MIC: 4 µg/mL
[19]
  log(activity): 2.8
[20]
  Efficacy: 100%
[21]
  IC50: 1.3 µM
[22]
  IC50: 66 µM
[23]
  Ki: 2.6 µM
[24]
  EC50: 0.7 µM
[25]
  EC5: 0.002 µM
